Assay results: patent US8741889B2, “Method of treating non-small cell lung cancer and colon cancer with gamma-secretase inhibitor” (Hoffmann-La Roche Inc, priority 2008, dated 2014)
Read-outs that look alike come from different tables or passages of the source.

Assays:
[1] = mouse, in vivo, 10 mg/kg
Procedure: Treatment for the MiaPaca2 study began on Feb. 8, 2007 (day 17 post tumor implant), for AsPC1 on Mar. 23, 2007 (day 9 post tumor implant), and for the BxPC3 study on May 30, 2007 (day 8 post tumor implant). Oral vehicle or the Compound (1) suspension was dosed using a sterile 1 cc syringe and 18-gauge gavage needle (0.2 ml/animal) once daily (qd) for 21-28 days, or using an intermittent schedule (7 days on, 7 days off, 7 days on (7+/7−/7+), 7 days on, 7 days off (7+/7−), 3 days on, 4 days off (3+/4−), or 14 days on, 14 days off (14+/14−)). Gemcitabine was administered to the mice intraperitoneally (ip) q3d (every 3 days) using a 1 cc syringe and 26 gauge needle.
(§1) Weight loss was graphically represented as percent change in mean group body weight, using the formula: ((W−W0)/W0)×100, where ‘W’ represents mean body weight of the treated group at a particular day, and ‘W0’ represents mean body weight of the same treated group at initiation of treatment.

[2] = in vivo
Procedure: Treatment began on Sep. 12, 2006 (day 26 post tumor cell implant). Compound (1) and vehicle were dosed as a suspension using a sterile 1 cc syringe and 18-gauge gavage needle (0.2 ml/animal) once (qd) or twice per day (bid) 8 hours apart for either 7, 14 or 21 days out of a 21 day schedule. For animals dosed for 7 days (7+/14−), treatment ended on Sep. 19, 2006 (day 33 post tumor cell implant). These mice were re-treated on day 67 with the same dose of compound (1) for another 7 days until day 74. For animals dose for 14 days (14+/7−) treatment ended on Sep. 26, 2006 (day 40 post tumor cell implant), and for animals dosed for 21 days, treatment ended on Oct. 3, 2006 (day 47 post tumor cell implant).
as §1

[3] = target: γ-secretase enzyme complex (Homo sapiens, UniProt P49768)
Procedure: (§2) Multiple in vitro assays were utilized to characterize the potency and selectivity of compound (1). The primary in vitro assay uses cell-free membrane preparations to provide the -secretase enzyme complex as an in vitro assay. […] The cellular processing of APP is measured using an ELISA-based readout. HEK293 cells have been engineered to over-express APP. Processing is measured by an ELISA-based quantitation of the A 1-40 secretase product. Cellular Notch inhibitory activity is measured using HEK293 cell line stably expressing a truncated human Notch 1 fused in its intracellular domain to a VP16/[…] transcriptional activator, which drives a firefly luciferase gene Inhibition of Notch processing produces a reduction in luciferase reporter activity as measured by its chemo luminescence.

[4] = test system: truncated human Notch 1 processing; assay: Cellular Notch luciferase reporter assay in HEK293 cells; format: cell-based
Procedure: as §2

[5] = Plasma drug exposure in nude mice; format: in vivo; details: for Cmax / AUC(0-t): po, 10 mg/kg
Procedure: Plasma samples were prepared and analyzed for compound (1) by LC/MS/MS. Mean plasma concentrations were calculated from 2 animals/group/time point. Plasma samples with concentration below the limit of quantification (<12.5 ng/ml) were set to zero. The pharmacokinetic parameters were estimated from the mean plasma concentration data. Sampling times were reported as nominal time. The pharmacokinetic parameters reported are the maximum plasma concentration (Cmax), the area under the plasma concentration-time curve from zero to 8 hr (AUC0-8 hr), and dose normalized AUC (AUC0-8 hr/Dose). The Cmax values were taken directly from the plasma concentration-time profiles […] without any extrapolation. The AUC was calculated using the linear trapezoidal rule.

[6] = nude, mouse, in vivo, maximum tolerated dose (MTD)

In the case of `CC(C)(C(=O)NCC(F)(F)C(F)(F)F)C(=O)N[C@@H]1C(=O)Nc2ccccc2-c2ccccc21` [Compound (1), 2,2-Dimethyl-N—((S)-6-oxo-6,7-dihydro-5H-dibenzo[b,d]azepin-7-yl)-N′-(2,2,3,3,3-pentafluoro-propyl)-malonamide], the “mice with >20% body weight loss deemed toxicity-related” value [1] is reported as “one”, the animal deaths ([2]; 30 mg/kg bid for 21 days, 10/group) is reported as “two” and the mice died ([2]; 60 mg/kg bid for 14 days, 10/group) is reported as “four”. For the same compound, the mice died ([2]; 60 mg/kg bid for 21 days, 10/group) was “seven”, the mice died ([2]; 60 mg/kg qd for 21 days, 10/group) was “three” and the “maximum tolerated dose (MTD)” value ([2]; nude, mouse, in vivo, 21 days) was 10 mg/kg. The MTD at 7 days [2, 6] was 60 mg/kg, the MTD at 14 days [2, 6] was 30 mg/kg and the “IC50 in cellular and cell-free assays” value [3] was “low nanomolar range”. The IC50 [4] was 5 nM, the “dose proportionality of plasma exposure” value ([5]; independent PK study in nude mice, up to 30 mg/kg) was “excellent dose proportionality” and the oral bioavailability ([5]; mouse) was “moderate to high”. It also gave a Cmax ([5]; nude, mouse, plasma, 10 mg/kg po qd, Day 21 (chronic dosing)) of 708 ng/mL, an AUC(0-t) ([5]; nude, mouse, plasma, 10 mg/kg po qd, Day 21 (chronic dosing), read-out: AUC0-8 hr) of 923 ng·h/mL and a Cmax ([5]; nude, mouse, plasma, 10 mg/kg po, Day 1 (single dose, naïve mice)) of 559 ng/mL. It also gave an AUC(0-t) ([5]; nude, mouse, plasma, 10 mg/kg po, Day 1 (single dose, naïve mice), read-out: AUC0-8 hr) of 1280 ng·h/mL, an AUC(0-t) ([5]; nude, mouse, plasma, oral daily dosing of 10 mg/kg, read-out: Exposures (AUC24h) producing efficacy) of about 1100 ng·h/mL and an AUC ([5]; nude, mouse, plasma, oral daily dosing of 10 mg/kg, read-out: Exposures producing efficacy (AUC24/day)) of about 1100 ng·h/mL.
